According to ChEMBL document CHEMBL1201862, “PubChem BioAssay data set” (2004):
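How tested: cells in 96-well plates exposed to compound for 48 hours at five concentrations. GI50 = concentration required for 50% inhibition of growth.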 The source made the active and inactive calls. Rule as the data show it: active = GI50 up to about 1.1 µM and inactive = higher.

Tests used:
Experiment in all cases: NCI tumour cell line growth inhibition, 48 h
786-0 = test system: 786-0
A498 = test system: A498
A549 = test system: A549
ACHN = test system: ACHN
CAKI-1 = test system: CAKI-1
CCRF-CEM = test system: CCRF-CEM
COLO 205 = test system: COLO 205
DLD-1 = test system: DLD-1
EKVX = test system: EKVX
HCC 2998 = test system: HCC 2998
HCT-116 = test system: HCT-116
HCT-15 = test system: HCT-15
HL-60 = test system: HL-60
HOP-62 = test system: HOP-62
HOP-92 = test system: HOP-92
HT-29 = test system: HT-29
IGROV-1 = test system: IGROV-1
K562 = test system: K562
KM-20L2 = test system: KM-20L2
KM12 = test system: KM12
LOX IMVI = test system: LOX IMVI
LXFL 529 = test system: LXFL 529
M14 = test system: M14
M19-MEL = test system: M19-MEL
MOLT-4 = test system: MOLT-4
Malme-3M = test system: Malme-3M
NCI-H226 = test system: NCI-H226
NCI-H23 = test system: NCI-H23
NCI-H460 = test system: NCI-H460
NCI-H522 = test system: NCI-H522
OVCAR-3 = test system: OVCAR-3
OVCAR-4 = test system: OVCAR-4
OVCAR-5 = test system: OVCAR-5
OVCAR-8 = test system: OVCAR-8
RPMI-8226 = test system: RPMI-8226
RXF 393 = test system: RXF 393
SF-268 = test system: SF-268
SF-295 = test system: SF-295
SF-539 = test system: SF-539
SK-MEL-28 = test system: SK-MEL-28
SK-MEL-2 = test system: SK-MEL-2
SK-MEL-5 = test system: SK-MEL-5
SK-OV-3 = test system: SK-OV-3
SN12C = test system: SN12C
SNB-19 = test system: SNB-19
SNB-75 = test system: SNB-75
SNB-78 = test system: SNB-78
SR = test system: SR
SW-620 = test system: SW-620
TK-10 = test system: TK-10
U-251 = test system: U-251
UACC-257 = test system: UACC-257
UACC-62 = test system: UACC-62
UO-31 = test system: UO-31
XF498 = test system: XF498
DMS-114 = test system: DMS-114
DMS-273 = test system: DMS-273

## Oc1cc(CN2CCOCCOCCOCCOCC2)c(O)cc1CN1CCOCCOCCOCCOCC1
786-0
  GI50: 27.2 µM (inactive)
A498
  GI50: > 75.3 µM (inactive)
A549
  GI50: > 100 µM (inactive)
ACHN
  GI50: 23.9 µM (inactive)
CAKI-1
  GI50: 18.1 µM (inactive)
CCRF-CEM
  GI50: 18.6 µM (inactive)
COLO 205
  GI50: 21.2 µM (inactive)
DLD-1
  GI50: 22.1 µM (inactive)
EKVX
  GI50: > 100 µM (inactive)
HCC 2998
  GI50: > 100 µM (inactive)
HCT-116
  GI50: 22.9 µM (inactive)
HCT-15
  GI50: 34.9 µM
HL-60
  GI50: 23.8 µM (inactive)
HOP-62
  GI50: > 100 µM (inactive)
HOP-92
  GI50: 21.2 µM (inactive)
HT-29
  GI50: > 47.2 µM (inactive)
IGROV-1
  GI50: > 78 µM (inactive)
K562
  GI50: 24.4 µM (inactive)
KM-20L2
  GI50: > 50.6 µM (inactive)
KM12
  GI50: > 100 µM (inactive)
LOX IMVI
  GI50: 24.5 µM (inactive)
LXFL 529
  GI50: 21.1 µM (inactive)
M14
  GI50: 18.3 µM (inactive)
M19-MEL
  GI50: 14.1 µM (inactive)
MOLT-4
  GI50: 24.3 µM (inactive)
Malme-3M
  GI50: > 10 µM (inactive)
NCI-H226
  GI50: > 61.5 µM (inactive)
NCI-H23
  GI50: > 78.5 µM (inactive)
NCI-H460
  GI50: > 100 µM (inactive)
NCI-H522
  GI50: 11.8 µM (inactive)
OVCAR-3
  GI50: 61.8 µM (inactive)
OVCAR-4
  GI50: 18.4 µM (inactive)
OVCAR-5
  GI50: 22.8 µM (inactive)
OVCAR-8
  GI50: 40.5 µM (inactive)
RPMI-8226
  GI50: 26.2 µM (inactive)
RXF 393
  GI50: 23.8 µM (inactive)
SF-268
  GI50: > 56.5 µM (inactive)
SF-295
  GI50: > 100 µM (inactive)
SF-539
  GI50: > 100 µM (inactive)
SK-MEL-28
  GI50: 24 µM (inactive)
SK-MEL-2
  GI50: > 50.7 µM (inactive)
SK-MEL-5
  GI50: > 61.2 µM (inactive)
SK-OV-3
  GI50: > 100 µM (inactive)
SN12C
  GI50: > 10 µM (inactive)
SNB-19
  GI50: > 100 µM (inactive)
SNB-75
  GI50: > 78.7 µM (inactive)
SNB-78
  GI50: > 57.1 µM (inactive)
SR
  GI50: 20.3 µM (inactive)
SW-620
  GI50: 24.4 µM (inactive)
TK-10
  GI50: > 56.2 µM (inactive)
U-251
  GI50: > 41.5 µM (inactive)
UACC-257
  GI50: > 100 µM (inactive)
UACC-62
  GI50: 29.2 µM (inactive)
UO-31
  GI50: > 71.3 µM (inactive)
XF498
  GI50: 22 µM (inactive)

## Fc1nc(F)nc(-c2c3ccccc3c3n2CCS3)n1
786-0
  GI50: 78.5 µM (inactive)
A498
  GI50: 30.8 µM (inactive)
A549
  GI50: > 100 µM (inactive)
ACHN
  GI50: > 100 µM (inactive)
CAKI-1
  GI50: > 100 µM (inactive)
CCRF-CEM
  GI50: 33.1 µM (inactive)
COLO 205
  GI50: > 100 µM (inactive)
DLD-1
  GI50: 57.8 µM (inactive)
DMS-114
  GI50: > 100 µM (inactive)
DMS-273
  GI50: 76.2 µM (inactive)
EKVX
  GI50: > 100 µM (inactive)
HCC 2998
  GI50: > 100 µM (inactive)
HCT-116
  GI50: 65.5 µM (inactive)
HCT-15
  GI50: 54.8 µM
HL-60
  GI50: 46.8 µM (inactive)
HOP-62
  GI50: 39.7 µM (inactive)
HOP-92
  GI50: 39.4 µM (inactive)
HT-29
  GI50: > 100 µM (inactive)
IGROV-1
  GI50: > 100 µM (inactive)
K562
  GI50: 47.5 µM (inactive)
KM-20L2
  GI50: > 100 µM (inactive)
KM12
  GI50: 47 µM (inactive)
LOX IMVI
  GI50: 61.4 µM (inactive)
LXFL 529
  GI50: 58.1 µM (inactive)
M14
  GI50: 71.1 µM (inactive)
M19-MEL
  GI50: > 100 µM (inactive)
MOLT-4
  GI50: > 10 µM (inactive)
Malme-3M
  GI50: > 100 µM (inactive)
NCI-H226
  GI50: > 100 µM (inactive)
NCI-H23
  GI50: > 100 µM (inactive)
NCI-H460
  GI50: 61.4 µM (inactive)
NCI-H522
  GI50: 47.2 µM (inactive)
OVCAR-3
  GI50: > 100 µM (inactive)
OVCAR-4
  GI50: 98.9 µM (inactive)
OVCAR-5
  GI50: > 100 µM (inactive)
RPMI-8226
  GI50: 33 µM (inactive)
RXF 393
  GI50: 91.2 µM (inactive)
SF-268
  GI50: 70.5 µM (inactive)
SF-295
  GI50: 53.3 µM (inactive)
SF-539
  GI50: > 100 µM (inactive)
SK-MEL-28
  GI50: > 100 µM (inactive)
SK-MEL-2
  GI50: 44.5 µM (inactive)
SK-MEL-5
  GI50: 50.1 µM (inactive)
SK-OV-3
  GI50: > 100 µM (inactive)
SN12C
  GI50: > 100 µM (inactive)
SNB-19
  GI50: > 100 µM (inactive)
SNB-75
  GI50: 22.8 µM (inactive)
SNB-78
  GI50: 23 µM (inactive)
SR
  GI50: 37 µM (inactive)
SW-620
  GI50: > 100 µM (inactive)
TK-10
  GI50: > 10 µM (inactive)
U-251
  GI50: 29 µM (inactive)
UO-31
  GI50: 84.5 µM (inactive)
XF498
  GI50: 23.4 µM (inactive)
